In paper PMC9289467, “A Novel Multifunctional 5,6-Dimethoxy-Indanone-Chalcone-Carbamate Hybrids Alleviates Cognitive Decline in Alzheimer’s Disease by Dual Inhibition of Acetylcholinesterase and Inflammation” (Frontiers in Aging Neuroscience, 2022):

Tests used:
AChE = biological target: T1, AChE (Mus musculus, UniProt P21836); experiment: Brain AChE activity, Amplex Red kit, APP/PS1 mice; format: in vivo; details: AP5 40 mg/kg intragastric once daily 5 months, vs APP/PS1 mice
T1 construct: The brain samples were weighed, homogenized in PBS solution, and centrifuged; from tissue; host or cells: mouse brain (cortex and hippocampus) of APP/PS1 mice dosed with AP5
T1 sequence (P21836 32-614): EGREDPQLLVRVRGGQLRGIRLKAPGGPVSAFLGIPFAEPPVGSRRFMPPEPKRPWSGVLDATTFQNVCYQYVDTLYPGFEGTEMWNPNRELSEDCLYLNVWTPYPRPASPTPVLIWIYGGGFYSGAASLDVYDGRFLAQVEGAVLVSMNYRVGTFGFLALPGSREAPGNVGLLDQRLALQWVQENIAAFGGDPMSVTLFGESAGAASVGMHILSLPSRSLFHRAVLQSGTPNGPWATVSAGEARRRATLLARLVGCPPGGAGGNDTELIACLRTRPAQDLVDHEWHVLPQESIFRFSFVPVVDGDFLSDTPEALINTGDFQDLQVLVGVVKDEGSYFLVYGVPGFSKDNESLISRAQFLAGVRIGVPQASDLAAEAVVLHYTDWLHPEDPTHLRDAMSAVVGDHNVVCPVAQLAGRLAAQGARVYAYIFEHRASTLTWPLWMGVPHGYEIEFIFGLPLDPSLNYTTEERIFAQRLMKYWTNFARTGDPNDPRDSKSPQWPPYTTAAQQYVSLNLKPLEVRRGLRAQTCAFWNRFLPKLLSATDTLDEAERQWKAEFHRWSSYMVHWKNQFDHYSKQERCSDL
Method: (§1) APP/PS1 mice of ages 6 months were randomly divided into vehicle (APP/PS1, n = 10) and treatment groups (AP5, n = 10), which were intragastrically administered with AP5 (40 mg/kg) once daily for consecutive 5 months. AP5 was dissolved in distilled water containing 1% sodium carboxymethyl cellulose.
The brain samples were weighed, homogenized in PBS solution, and centrifuged for 20 min at 25,000 g at 4°C. Amplex® Red acetylcholinesterase/acetylcholine assay kit (A12217, Thermo Fisher Scientific) was used to detect AChE activity and ACh levels in the supernatant in accordance with the manufacturer’s instructions.
Briefly, for ACh assay, the reactions were started by adding 100 µL of the Amplex Red reagent, HRP, choline oxidase, AChE working solution to each microplate well containing the controls and samples. For AChE assay, detection cocktail solution containing ACh, Amplex Red, choline oxidase and horseradish peroxidase was added toeach well. Assay plates were incubated at room temperature for 30 min and protected from light, followed by detecting fluorescence of resorufin (λex = 544 nm, λem = 590 nm) in a fluorescence microplate reader.
After deparaffinization and antigen retrieval, the sections were incubated with 0.3% hydrogen peroxide (H2O2) to inhibit endogenous peroxidase activity for 20 min and blocked by goat serum for 30 min at37°C. […]

[1] = system: Aβ plaque-associated microglia and astrocytes; experiment: Plaque-associated microglia and astrocytes (MOAB-2 with Iba1 or GFAP co-staining); format: in vivo, APP/PS1 mice
Method: as §1
The fixed hemibrains were paraffin-embedded and sectioned in the coronal plane. The slices were deparaffinized with xylene and rehydrated by a series of gradient alcohols. Antigen retrieval through microwave boiling was performed with 10 mM sodium citrate solution at pH 6.0. The slices were cooled down to room temperature and then rinsed in PBS solution. […]
(1:100, BAF2655, R&D, Minneapolis, MN, USA). […] For the quantification of Aβ plaque-associated microglia and astrocyte, Iba1- and GFAP-immunopositive cells around plaques were counted. On each slide, ten plaques were randomly determined and the microglia (nuclei) in the immediate vicinity (two times the plaque diameter) of each plaque were counted. For colocalization of PSD95 and synaptophysin, images were analyzed with the puncta analyzer plugin with a minimum pixel specification of 4 in Image Jand thresholding was consistent for every image. […]
anti-synaptophysin (1:1000, 67864-1-lg, Proteintech) overnight at 4°C. […] Densitometric analysis was performed using Quantity One software (Bio-Rad, Berkeley, CA, USA). […]

ThS-positive plaque = experiment: Thioflavin S staining of amyloid plaques, APP/PS1 mice; format: in vivo; details: cortex and hippocampus; AP5 40 mg/kg once daily 5 months
Method: as §1
The hemisphere slices were stained with 0.5% fluorescent amyloid dye Thioflavin S (ThS, T1892, Sigma Aldrich) in the dark for 10 min followed by three washes with 50% ethyl alcohol and a final wash in PBS. Image analysis of the number and size of cortical and hippocampal ThS positive plaques was carried out on Image J FIJI software with “analyze particles” function.

Aβ = experiment: MOAB-2 immunofluorescence of Aβ, APP/PS1 mice; format: in vivo; details: cortex and hippocampus; AP5 40 mg/kg once daily 5 months
Method: as §1
The fixed hemibrains were paraffin-embedded and sectioned in the coronal plane. The slices were deparaffinized with xylene and rehydrated by a series of gradient alcohols. Antigen retrieval through microwave boiling was performed with 10 mM sodium citrate solution at pH 6.0. The slices were cooled down to room temperature and then rinsed in PBS solution. Then the slices were incubated in 10% goat serum blocking solution for 1 h followed by primary antibodies overnight at 4°C. The next day, the slides were labeled with biotinylated or fluorescent secondary antibodies. Slices were washed three times with PBS before being mounted. Images were captured using a SpinSR10 scanner (Olympus, Tokyo, Japan). […]
Cambridge, UK) or anti-GFAP (1:100, bs-0199R, Bioss) at4 °C. After being washed with PBS, slides were treated with a biotinylated secondary antibody for 30 min and with streptavidin-peroxidase complex for another 30 min at 37°C. Immunostaining was visualized with 3,3′-diaminobenzidine (DAB, ZL1-9018, Zhongshan Jinqiao, Beijing, China ).The images were acquired using a Nikon microscope (Nikon, […]

**Q.** Which “AChE activity in cortex and hippocampus” value (AChE) does the source give for `CCN(C)C(=O)Oc1cccc(/C=C2\Cc3cc(OC)c(OC)cc3C2=O)c1` [AP5, (E)-3-((5,6-dimethoxy-1-oxo-1,3-dihydro-2H-inden-2-ylidene)-methyl)phenylethyl(methyl)carbamate] here?
**A.** The value was “decreased activity of AChE”.

**Q.** What about the “number of astrocytes around Aβ plaque” value ([1]; MOAB-2 and GFAP co-staining) of the same compound?
**A.** The value was “no statistical difference”.

**Q.** And the plaque-associated microglia ([1]; MOAB-2 and Iba1 co-staining)?
**A.** The plaque-associated microglia was “increased clustering of microglia surrounding a plaque”.

**Q.** And the “load of ThS-positive plaque” value (ThS-positive plaque)?
**A.** The value was “pronounced reduction”.

**Q.** What about the “number of ThS-positive plaque” value (ThS-positive plaque) of the same compound?
**A.** The value was “pronounced reduction”.

**Q.** And the “area occupied by unaggregated and aggregated Aβ (MOAB-2)” value (Aβ)?
**A.** The value was “also decreased”.
